Square brackets hold non-standard residues; d marks the D form. Peptide text beside a SMILES is read from it. * marks the point of attachment. Acetyl(3-pyridyl) = O=C(Cc1cccnc1)*; Cya = N[C@@H](CS(=O)(=O)O)C(=O)O; Isonicotinoyl = O=C(c1ccncc1)*; Morpholide = C1CN(*)CCO1; Piperidide = C1CCN(*)CC1; Pyrrolidide = C1CCN(*)C1; PhAc = O=C(Cc1ccccc1)*; NHBn = c1ccc(CN*)cc1
Each compound was assayed against VLA-4 (Homo sapiens, UniProt P05556+P13612) (assay: In vitro binding inhibition of 51Cr-labeled Jurkat cells to solid phase-bound CS-1 compound (SEQ ID NO:1)). Settings: not given.
Sequence of VLA-4 (P13612 34-1032): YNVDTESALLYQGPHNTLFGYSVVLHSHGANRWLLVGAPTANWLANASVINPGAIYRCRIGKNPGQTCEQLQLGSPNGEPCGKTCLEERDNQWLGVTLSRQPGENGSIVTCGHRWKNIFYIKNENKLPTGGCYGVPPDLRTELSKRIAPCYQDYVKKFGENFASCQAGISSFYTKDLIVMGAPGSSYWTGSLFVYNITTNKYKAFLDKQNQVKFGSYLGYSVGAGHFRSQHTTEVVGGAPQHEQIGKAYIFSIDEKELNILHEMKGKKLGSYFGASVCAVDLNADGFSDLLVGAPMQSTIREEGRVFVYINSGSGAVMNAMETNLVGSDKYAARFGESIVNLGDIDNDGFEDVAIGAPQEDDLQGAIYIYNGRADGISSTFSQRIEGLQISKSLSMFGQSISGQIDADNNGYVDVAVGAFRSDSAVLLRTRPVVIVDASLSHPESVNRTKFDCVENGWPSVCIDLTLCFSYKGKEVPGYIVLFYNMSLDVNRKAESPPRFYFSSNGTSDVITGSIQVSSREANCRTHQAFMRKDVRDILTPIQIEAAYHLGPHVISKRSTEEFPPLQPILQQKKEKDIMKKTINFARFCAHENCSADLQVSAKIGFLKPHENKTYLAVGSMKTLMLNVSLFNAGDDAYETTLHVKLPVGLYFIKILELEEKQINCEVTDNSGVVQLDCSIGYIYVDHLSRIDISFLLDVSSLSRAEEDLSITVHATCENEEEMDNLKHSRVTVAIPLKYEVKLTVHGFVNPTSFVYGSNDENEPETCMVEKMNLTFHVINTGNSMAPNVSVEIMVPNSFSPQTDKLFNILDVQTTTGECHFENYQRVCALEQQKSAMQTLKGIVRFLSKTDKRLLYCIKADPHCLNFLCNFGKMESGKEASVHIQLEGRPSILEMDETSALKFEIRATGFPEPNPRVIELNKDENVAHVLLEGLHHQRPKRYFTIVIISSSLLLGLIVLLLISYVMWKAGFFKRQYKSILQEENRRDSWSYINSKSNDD
Sequence of VLA-4 (P05556 21-798): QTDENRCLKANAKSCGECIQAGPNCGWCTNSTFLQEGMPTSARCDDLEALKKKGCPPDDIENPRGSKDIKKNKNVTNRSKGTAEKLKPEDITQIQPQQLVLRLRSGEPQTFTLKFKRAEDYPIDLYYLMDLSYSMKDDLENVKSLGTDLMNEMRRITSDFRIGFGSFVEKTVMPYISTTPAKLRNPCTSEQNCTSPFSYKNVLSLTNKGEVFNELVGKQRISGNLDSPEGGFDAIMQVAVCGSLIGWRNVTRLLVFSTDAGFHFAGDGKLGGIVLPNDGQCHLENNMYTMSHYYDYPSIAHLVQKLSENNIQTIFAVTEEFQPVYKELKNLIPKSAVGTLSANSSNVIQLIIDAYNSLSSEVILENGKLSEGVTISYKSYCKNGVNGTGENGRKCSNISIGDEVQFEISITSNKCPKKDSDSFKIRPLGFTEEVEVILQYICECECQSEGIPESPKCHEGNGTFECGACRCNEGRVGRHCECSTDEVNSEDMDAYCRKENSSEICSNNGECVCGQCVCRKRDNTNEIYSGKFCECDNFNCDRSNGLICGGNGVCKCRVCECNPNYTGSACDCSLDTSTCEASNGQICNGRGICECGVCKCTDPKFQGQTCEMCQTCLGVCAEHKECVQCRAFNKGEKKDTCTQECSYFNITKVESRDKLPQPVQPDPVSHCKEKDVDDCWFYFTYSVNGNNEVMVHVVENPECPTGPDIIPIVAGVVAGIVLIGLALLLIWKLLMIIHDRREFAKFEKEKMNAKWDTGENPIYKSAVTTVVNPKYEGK
Format: cell-based
Parameters: inflammatory cells that contain the VLA-4 receptor [Jurkat cells; host or cells: Jurkat (human T lymphoblastic line)
Procedure: Binding inhibition is measured here as a concentration of compound that inhibits one-half the binding between a standard number of Jurkat cells and a standard amount of CS-1 compound bound to the surface of a microtiter plate well. Those concentrations are conveniently expressed as IC50 values, smaller numbers indicating a lower concentration required to inhibit 50 percent binding and therefore greater potency. Further specifics of this assay are provided hereinafter.
Jurkat cells (ATCC TIB 152), a human T lymphoblastic line, labeled with ^51 chromium were used to assay in vitro binding inhibition provided by various compounds discussed herein.
The plates were prepared as follows: The 25-mer CS-1 compound (SEQ ID NO:1) dissolved at 0.5-1 μg/ml in a buffer of 0.1M NaHCO3 at pH 9.5 that also contained 10 μg/ml of bovine serum albumin (BSA) or a conjugate of the CS-1 compound linked to […] (CS-1-OVA) dissolved at 1-2.5 μg/ml in the same buffer was used as the substrate. Each well of the microtiter plates was coated with 50 μl of substrate or buffer alone for controls. The wells were permitted to dry out completely and were then rinsed twice with PBS at pH 7.4. Non-specific binding sites of each well were then blocked using 200 μl per well of RPMI/1 percent BSA for two hours at room temperature.
Jurkat cells (3-5×10^6 cells) were placed into a 15 ml Falcon™ round-bottom tube with a cap. The tube was centrifuged, and the extra medium was then removed.
Two hundred microliters of a ^51 Cr labeling solution were added to the centrifuged cells and maintained in contact with the cells for 90-120 minutes in a warm room. […] Longer contact times provide a greater amount of labeling but lower cell viability.
The labeled cells are washed with (i) complete medium, (ii) 1 mM EDTA/PBS and then (iii) RPM1/1 percent BSA free of serum components. The cells are centrifuged after each washing. The cells are finally resuspended in serum-free RPMI/1 percent BSA at a concentration of 1×10^6 viable cells/ml, which provides a concentration that is diluted by one-half in the assay.
Inhibitor compounds are prepared as stock solutions at 20 mg/ml in DMSO in 1.5 ml cryogenic screwcap vials, and were stored at -70° C. Using Flow™ round-bottom or V-bottom microtiter plates, the inhibitor compounds were prepared at twice the assay concentration in RPMI/1 percent BSA at 60 μl/well.
Four initial dilutions were typically used.
The ^51 Cr-labeled cells ([…] at 60 μl/well) were then admixed with the diluted compound solutions. The admixtures were maintained at room temperature (about 22° C.) for 30 minutes.
One hundred microliters of each inhibitor compound/cell admixture were transferred to the substrate-coated wells. This was done in triplicate for each dilution. The resulting plates were incubated for 30 minutes at 37° C. and then washed gently three times with RPMI/1 percent BSA at 200 μl/well. Binding was observed microscopically, particularly after the second wash.
The bound cells were then lysed by the addition of a 0.5 percent solution of sodium dodecylsulfate in water at 100 μl/well. The resulting solutions were then processed for counting and calculation of IC50 values following usual procedures.
The data of Table 1 are normalized to the binding of SEQ ID NO: 3. […] Multiple assays for the same compound were averaged.
With `CC(C)C[C@H](NC(=O)c1ccncc1)C(=O)N[C@@H](CC(=O)O)C(=O)N[C@@H](Cc1ccccc1)C(=O)N1CCC[C@@H]1C(N)=O` [951.20] (Isonicotinoyl-LDF[dP]-NH2) the “Relative Potency” value was 228.
In the case of `CC(C)C[C@H](NC(=O)Cc1cccnc1)C(=O)N[C@@H](CC(=O)O)C(=O)N[C@@H](Cc1ccccc1)C(=O)N1CCC[C@@H]1C(N)=O` [951.22] ({Acetyl(3-pyridyl)}-LDF[dP]-NH2), the “Relative Potency” value is reported as 387.
For `CC(=O)N[C@@H](Cc1ccccc1)C(=O)N[C@@H](CC(C)C)C(=O)N[C@@H](CC(=O)O)C(=O)N[C@@H](Cc1ccccc1)C(=O)N1CCC[C@@H]1C(N)=O` [951.42] (Ac-FLDF[dP]-NH2), the “Relative Potency” value was 35.4.
With `CC(=O)N[C@@H](CO)C(=O)N[C@@H](Cc1ccccc1)C(=O)N[C@@H](CC(=O)O)C(=O)N[C@@H](Cc1ccccc1)C(=O)N[C@@H](CO)C(N)=O` [951.46] (Ac-SFDFS-NH2) the “Relative Potency” value was “.22”.
In the case of `CC(C)CN1C(=O)C(NC(=O)N[C@@H](CC(=O)O)C(=O)N[C@@H](Cc2ccccc2)C(=O)N2CCC[C@@H]2C(N)=O)Cc2ccccc21` (some centres unmarked) [1014.01], the “Relative Potency” value is reported as 1.22.
In the case of `CC(C)C[C@H](NC(=O)Cc1ccc(O)c(O)c1)C(=O)N[C@@H](CC(=O)O)C(=O)N[C@@H](Cc1ccccc1)C(=O)N1CCCCC1` [1019.01], the “Relative Potency” value is reported as 81.4.
`CC(C)CN(CC(C)C)C(=O)N[C@@H](CC(=O)O)C(=O)N[C@H](C(=O)N1CCCCC1)c1ccccc1` [1027.01] was tested, and the “Relative Potency” value was “.5”.
For `CC(C)CN(CCCc1ccccc1)C(=O)N[C@@H](CC(=O)O)C(=O)N[C@@H](Cc1ccccc1)C(=O)N1CCCCC1` [1027.02], the “Relative Potency” value was 0.
`O=C(O)C[C@H](NC(=O)N(Cc1ccccc1)Cc1ccccc1)C(=O)N[C@@H](Cc1ccccc1)C(=O)N1CCCCC1` [1027.03] was tested, and the “Relative Potency” value was 0.
For `CC(C)COC(=O)N[C@@H](CC(=O)O)C(=O)N[C@@H](Cc1ccccc1)C(=O)N1CCCCC1` [1027.04], the “Relative Potency” value was 0.
In the case of `CC(C)CN(CC(=O)Nc1ccccc1)C(=O)CN(CC(=O)O)C(=O)CNC(=O)C1CCCC1` [1032.01], the “Relative Potency” value is reported as “.42”.
In the case of `CC(C)C[C@H](NCc1ccccc1)C(=O)N[C@@H](CC(=O)O)C(=O)N[C@@H](Cc1ccccc1)C(=O)N1CCCCC1` [1033.01], the “Relative Potency” value is reported as 5.84.
For `CC(C)CC(C(=O)NCc1ccccc1)C(=O)N[C@@H](CC(=O)O)C(=O)N[C@@H](Cc1ccccc1)C(=O)N1CCC[C@@H]1C(N)=O` (some centres unmarked) [1034.01], the “Relative Potency” value was 1.96.
In the case of `CC(C)CC(C(=O)NCc1ccccc1)C(=O)N[C@@H](CC(=O)O)C(=O)N[C@@H](Cc1ccccc1)C(=O)N1CCCCC1` (some centres unmarked) [1034.02], the “Relative Potency” value is reported as 0.

Same assay, conditions: binding inhibition potency relative to standard compound of SEQ ID NO:3 = 1 (normalized IC50); about one-tenth or less assigned zero
`CC(C)C[C@H](NC(=O)Cc1ccccc1)C(=O)N[C@@H](CC(=O)O)C(=O)N[C@@H](Cc1ccccc1)C(=O)N1CCCCC1` [951.14] (PhAc-Leu-Asp-Phe-Piperidide) was tested, and the “Relative Potency” value was 239.
In the case of `CC(C)C[C@H](NC(=O)Cc1ccccc1)C(=O)N[C@@H](CC(=O)O)C(=O)N[C@@H](Cc1ccccc1)C(=O)N1CCCC1` [951.15] (PhAc-Leu-Asp-Phe-Pyrrolidide), the “Relative Potency” value is reported as 121.
For `CC(C)C[C@H](NC(=O)Cc1ccccc1)C(=O)N[C@@H](CC(=O)O)C(=O)N[C@@H](Cc1ccccc1)C(=O)N1CCC[C@H]1CO` [951.17], the “Relative Potency” value was 163.
In the case of `O=C(O)C[C@H](NC1CCN(C(=O)Cc2ccccc2)CC1)C(=O)N[C@@H](Cc1ccccc1)C(=O)N1CCCC1` [992.01], the “Relative Potency” value is reported as 0.
In the case of `CC(C)C[C@H](NC(=O)Cc1ccccc1)C(=O)N[C@@H](CC(=O)O)C(=O)NC(c1ccccc1)c1ccccc1` [997.01], the “Relative Potency” value is reported as 2.66.
For `CC(C)C[C@H](NC(=O)Cc1ccccc1)C(=O)N[C@@H](CC(=O)O)C(=O)NCc1ccccc1` [997.02] (PhAc-Leu-Asp-NHBn), the “Relative Potency” value was 18.8.
`CC(C)C[C@H](NC(=O)Cc1ccccc1)C(=O)N[C@@H](CC(=O)O)C(=O)NCCN1CCOCC1` [997.03] was tested, and the “Relative Potency” value was 12.5.
In the case of `CC(C)C[C@H](NC(=O)Cc1ccccc1)C(=O)N[C@@H](CC(=O)O)C(=O)NC1Cc2ccccc2NC1=O` (some centres unmarked) [997.08], the “Relative Potency” value is reported as 23.5.
`CC(C)C[C@H](NC(=O)Cc1ccccc1)C(=O)N[C@@H](CC(=O)O)C(=O)N1CCc2ccccc2C1` [997.09] was tested, and the “Relative Potency” value was 3.13.
`CC(C)C[C@H](NC(=O)Cc1ccccc1)C(=O)N[C@@H](CC(=O)O)C(=O)NC1Cc2ccccc2N(CC(C)C)C1=O` (some centres unmarked) [997.10] was tested, and the “Relative Potency” value was 6.26.
In the case of `CC(C)C[C@H](NC(=O)Cc1ccccc1)C(=O)N[C@@H](CC(=O)O)C(=O)NC1Cc2ccccc2N(CC(N)=O)C1=O` (some centres unmarked) [997.11], the “Relative Potency” value is reported as 44.8.
`CC(C)C[C@H](NC(=O)Cc1ccccc1)C(=O)N[C@@H](CC(=O)O)C(=O)N[C@@H](Cc1ccccc1)C(N)=O` [997.12] (PhAc-Leu-Asp-Phe-NH2) was tested, and the “Relative Potency” value was “.45”.
For `CC(C)C[C@H](NC(=O)Cc1ccccc1)C(=O)N[C@@H](CC(=O)O)C(=O)NNC(=O)OC(C)(C)C` [997.13], the “Relative Potency” value was 1.57.
In the case of `CC(C)C[C@H](NC(=O)Cc1ccccc1)C(=O)N[C@@H](CC(=O)O)C(=O)NN(Cc1ccccc1)C(=O)C1CCCC1` [997.15], the “Relative Potency” value is reported as 1.28.
In the case of `CC(C)C[C@H](NC(=O)Cc1ccccc1)C(=O)N[C@@H](CC(=O)O)C(=O)NCC(=O)N1CCOCC1` [997.16] (PhAc-Leu-Asp-Gly-Morpholide), the “Relative Potency” value is reported as 9.23.
For `CC(C)C[C@H](NC(=O)Cc1ccccc1)C(=O)N[C@@H](CC(=O)O)C(=O)NN1Cc2ccccc2NC1=O` [997.17], the “Relative Potency” value was 1.35.
In the case of `CC(C)C[C@H](NC(=O)Cc1ccccc1)C(=O)N[C@@H](CC(=O)O)C(=O)NC1Cc2ccccc2N(CCN2CCOCC2)C1=O` (some centres unmarked) [997.18], the “Relative Potency” value is reported as 20.
In the case of `CC(C)C[C@H](NC(=O)Cc1ccccc1)C(=O)N[C@@H](CC(=O)O)C(=O)N[C@@H](CC(C)C)C(=O)N1CCOCC1` [997.20] (PhAc-Leu-Asp-Leu-Morpholide), the “Relative Potency” value is reported as 291.
`CC(C)C[C@H](NC(=O)Cc1ccccc1)C(=O)NC(CC(=O)O)(CC(=O)O)C(=O)N[C@@H](Cc1ccccc1)C(=O)N1CCCCC1` [1026.01] was tested, and the “Relative Potency” value was 0.
With `CC(C)C[C@H](NC(=O)Cc1ccccc1)C(=O)NC(C(=O)O)C(=O)N[C@@H](Cc1ccccc1)C(=O)N1CCCCC1` (some centres unmarked) [1026.02] the “Relative Potency” value was 0.
For `CC(C)C[C@H](NC(=O)Cc1ccccc1)C(=O)NC(C(=O)N[C@@H](Cc1ccccc1)C(=O)N1CCCCC1)C(C(=O)O)C(=O)O` (some centres unmarked) [1026.04], the “Relative Potency” value was 2.32.
In the case of `CC(C)C[C@H](NC(=O)Cc1ccccc1)C(=O)N[C@@H](CC(=O)O)C(=O)N[C@H]1Cc2ccccc2[C@H]2CCCCN2C1=O` [1026.05], the “Relative Potency” value is reported as 50.1.
For `CC(C)C[C@H](NC(=O)Cc1ccccc1)C(=O)N[C@@H](CS(=O)(=O)O)C(=O)N[C@@H](Cc1ccccc1)C(=O)N1CCCCC1` [1026.06] (PhAc-Leu-[Cya]-Phe-Piperidide), the “Relative Potency” value was 0.
With `CC(C)C[C@H](NC(=O)Cc1ccccc1)C(=O)N[C@@H](CP(=O)(O)O)C(=O)N[C@@H](Cc1ccccc1)C(=O)N1CCCCC1` [1026.07] the “Relative Potency” value was 0.
In the case of `CC(C)C[C@H](NC(=O)Cc1ccccc1)C(=O)N[C@@H](CS(N)(=O)=O)C(=O)N[C@@H](Cc1ccccc1)C(=O)N1CCCCC1` [1026.08], the “Relative Potency” value is reported as 0.
With `CC(C)CN(CC(=O)Nc1ccccc1)C(=O)CN(CC(=O)O)C(=O)CN(Cc1ccccc1)C(=O)C1CCCC1` [1032.02] the “Relative Potency” value was “.63”.
With `CC(C)C[C@H](NC(=O)Cc1ccccc1)C(=O)N[C@@H](CC(=O)O)C(=O)N[C@@H](Cc1ccc(O)cc1)C(=O)N1CCC[C@H]1C(N)=O` [1036.01] (PhAc-LDYP-NH2) the “Relative Potency” value was 405.
